Patent publication EP0013144A1, “Substituted diphenylamine derivatives, compositions and herbicidal uses thereof, and processes for their preparation” (ICI AUSTRALIA LIMITED, priority 1978, dated 1980)

Assays:
Assay type in all cases: in vivo
[1] = system: Wheat; test: Post-emergence herbicidal activity (Example 32); parameters: key: 0-3 scale: 0 = 0-25% damage, 3 = 75-99% kill, 3+ = 100% kill; settings: 5 kg/ha, 3 weeks after spraying
Experimental: (§1) Concentrated formulations of the compounds of the invention were prepared by: • a) in the case of oils and waxy solids, dissolving the compound in toluene containing 7% v/v "Teric" N13 ("Teric" is a Trade MarK and "Teric" N13, a product of ethoxylation of nonylphenol, is available from ICI Australia Limited) and 3% v/v "Kemmat" SC15B ("Kemmat" is a Trade Mark and "Kemmat" SC15B is a formulation of calcium dodecylbenzene sulfonate); or • b) in the case of crystalline solids, adding 5 parts by weight of the compound and 1 part by weight of . ''Dyapol" PT ("Dyapol" is a Trade Mark and "Dyapol" PT is an anionic suspending agent) to 94 parts by weight of an aqueous solution containing 0.25% v/v of "Teric" N8 (a product of ethoxylation of nonylphenol) and ball-milling the mixture to produce a stable suspension. The emulsifiable concentrates and suspensions were then diluted with water to give an aqueous composition of the required concentration suitable for use in the evaluation of the pre-emergence and post-emergence herbicidal activity of the compounds of the invention.
(§2) The post-emergent herbicidal activity of the compounds of the invention formulated as described in Example 30 was assessed by the following procedure.
(§3) The seeds of the test species were sown in rows 2 cm deep in soil contained in seed boxes. The monocotyledonous plants and the dicotyledonous plants were sown in separate seed boxes in duplicate. The four seed boxes were placed in a glasshouse, lightly watered with an overhead spray to initiate germination and then sub-irrigated as required for optimum plant growth. After the plants had grown to a height of about 10 to 12.5 cm one box of each of the monocotyledonous plants and the dicotyledonous plants was removed from the glasshouse and sprayed with the required quantity of a composition of the invention. After spraying the boxes were returned to the glasshouse for further 3 weeks and the effects of the treatment was visually assessed by comparison with the untreated controls. The results are presented in Table 4 where the damage to plants is rated on a scale of from 0 to 3 where 0 represents 0 to 25% damage, 3 represents 75 to 99% kill and 3+ represents 100% kill. A dash (-) means that no experiment was carried out.

[2] = system: Ipomea; test: Post-emergence herbicidal activity (Example 32); settings: 5 kg/ha, 3 weeks after spraying
Experimental: as §1, §2, §3

[3] = system: Japanese millet; test: Post-emergence herbicidal activity (Example 32); settings: 5 kg/ha, 3 weeks after spraying
Experimental: as §1, §2, §3

[4] = system: Mustard; test: Post-emergence herbicidal activity (Example 32); settings: 5 kg/ha, 3 weeks after spraying
Experimental: as §1, §2, §3

[5] = system: Ryegrass; test: Post-emergence herbicidal activity (Example 32); settings: 5 kg/ha, 3 weeks after spraying
Experimental: as §1, §2, §3

[6] = system: Sunflower; test: Post-emergence herbicidal activity (Example 32); settings: 5 kg/ha, 3 weeks after spraying
Experimental: as §1, §2, §3

[7] = system: Wild Oats; test: Post-emergence herbicidal activity (Example 32); settings: 5 kg/ha, 3 weeks after spraying
Experimental: as §1, §2, §3

[8] = system: Maize; test: Pre-emergence herbicidal test, fibre trays (Example 33); parameters: key: 0 = 0-20% damage, 5 = complete kill, vs untreated control; settings: 2.0 kg/ha, after 21 days
Experimental: (§4) The compounds were formulated for test by mixing an appropriate amount with 5 ml of an emulsion prepared by diluting 160 ml of a solution containing 21.S g per litre of "Span" 80 and 78.2 g per litre of "Tween" 20 in methylcyclohexanone to 500 ml with water. "Span" 80 is a Trade Mark for a surface-active agent comprising sorbitan monolaurate. "Tween" 20 is a Trade Mark for a surface-active agent comprising a condensate of sorbitan monolaurate with 20 molar proportions of ethylene oxide. Each 5 ml emulsion containing a test compound was'then diluted to 40 ml with water and sprayed on to young pot plants (post-emergence test) of the species named in Table 5 below. Damage to test plants was assessed after 14 days on a scale of 0 to 5 where 0 is 0 to 20% damage and 5 is complete kill. In a test for pre-emergence herbicidal activity, seeds of the test plants were sown in a shallow slit formed in the surface of soil in fibre trays. The surface was then levelled and sprayed, and fresh soil then spread thinly over the sprayed surface. Assessment of herbicidal damage was carried out after 21 days using the same scale of 0 to 5 as the post-emergence test. In both cases the degree of herbicidal damage was assessed by comparison with untreated control plants. A dash (-) means that no experiment was carried out.

[9] = system: Rice; test: as above; settings: 2.0 kg/ha, after 21 days
Experimental: as §4

[10] = system: Amaranthus retroflexus; test: as above; settings: 2.0 kg/ha, after 21 days
Experimental: as §4

[11] = system: Cotton; test: as above; settings: 2.0 kg/ha, after 21 days
Experimental: as §4

[12] = system: Ipomea purpurea; test: as above; settings: 2.0 kg/ha, after 21 days
Experimental: as §4

[13] = system: Rape; test: as above; settings: 2.0 kg/ha, after 21 days
Experimental: as §4

[14] = system: Senecio vulgaris; test: as above; settings: 2.0 kg/ha, after 21 days
Experimental: as §4

[15] = system: Soy bean; test: as above; settings: 2.0 kg/ha, after 21 days
Experimental: as §4

[16] = system: Sugar beet; test: as above; settings: 2.0 kg/ha, after 21 days
Experimental: as §4

[17] = system: Winter wheat; test: as above; settings: 2.0 kg/ha, after 21 days
Experimental: as §4

[18] = system: Maize; test: Post-emergence herbicidal test, young pot plants (Example 33); settings: 2.0 kg/ha, after 14 days
Experimental: as §4

[19] = system: Rice; test: as above; settings: 2.0 kg/ha, after 14 days
Experimental: as §4

[20] = system: Winter wheat; test: as above; parameters: key: 0 = 0-20% damage, 5 = complete kill, vs untreated control; settings: 2.0 kg/ha, after 14 days
Experimental: as §4

[21] = system: Cotton; test: as above; settings: 2.0 kg/ha, after 14 days
Experimental: as §4

[22] = system: Ipomea purpurea; test: as above; settings: 2.0 kg/ha, after 14 days
Experimental: as §4

[23] = system: Rape; test: as above; settings: 2.0 kg/ha, after 14 days
Experimental: as §4

[24] = system: Senecio vulgaris; test: as above; settings: 2.0 kg/ha, after 14 days
Experimental: as §4

[25] = system: Soy bean; test: as above; settings: 2.0 kg/ha, after 14 days
Experimental: as §4

[26] = system: Sugar beet; test: as above; settings: 2.0 kg/ha, after 14 days
Experimental: as §4

[27] = system: Chenopodium album; test: Pre-emergence herbicidal test, fibre trays (Example 33); settings: 2.0 kg/ha, after 21 days
Experimental: as §4

[28] = system: Polygonum aviculare; test: as above; settings: 2.0 kg/ha, after 21 days
Experimental: as §4

[29] = system: Amaranthus retroflexus; test: Post-emergence herbicidal test, young pot plants (Example 33); settings: 2.0 kg/ha, after 14 days
Experimental: as §4

[30] = system: Chenopodium album; test: as above; settings: 2.0 kg/ha, after 14 days
Experimental: as §4

[31] = system: Polygonum aviculare; test: as above; settings: 2.0 kg/ha, after 14 days
Experimental: as §4

**Q.** `COC(=O)C(C)Oc1ccc(N(C)c2ccc([N+](=O)[O-])cc2[N+](=O)[O-])cc1` (stereo not shown) [Compound 18] was tested. Which “damage to plants, Wh” value [1] did it give?
**A.** The value was 2.

**Q.** And the “damage to plants, Ip” value [2]?
**A.** Its value is 0 (0 represents 0 to 25% damage).

**Q.** What about the “damage to plants, Jm” value [3] of the same molecule?
**A.** Its value is 3+ (3+ represents 100% kill).

**Q.** And the “damage to plants, Ms” value [4]?
**A.** The value was 0 (0 represents 0 to 25% damage).

**Q.** And the “damage to plants, Rg” value [5]?
**A.** The value was 3+ (3+ represents 100% kill).

**Q.** And the “damage to plants, Sf” value [6]?
**A.** The value was 0 (0 represents 0 to 25% damage).

**Q.** What about the “damage to plants, Ot” value [7] of the same molecule?
**A.** The value was 3 (3 represents 75 to 99% kill).

**Q.** And the “herbicidal damage, Mz” value [8]?
**A.** Its value is 1.

**Q.** What about the “herbicidal damage, Rc” value [9] of the same molecule?
**A.** The value was 1.

**Q.** And the “herbicidal damage, Am” value [10]?
**A.** Its value is 0 (0 is 0 to 20% damage).

**Q.** What about the “herbicidal damage, Ct” value [11] of the same molecule?
**A.** Its value is 0 (0 is 0 to 20% damage).

**Q.** What about the “herbicidal damage, Ip” value [12] of the same molecule?
**A.** The value was 0 (0 is 0 to 20% damage).

**Q.** And the “herbicidal damage, Rp” value [13]?
**A.** Its value is 1.

**Q.** And the “herbicidal damage, Sn” value [14]?
**A.** Its value is 0 (0 is 0 to 20% damage).

**Q.** What about the “herbicidal damage, Sy” value [15] of the same molecule?
**A.** Its value is 0 (0 is 0 to 20% damage).

**Q.** What about the “herbicidal damage, Sb” value [16] of the same molecule?
**A.** Its value is 0 (0 is 0 to 20% damage).

**Q.** And the “herbicidal damage, Ww” value [17]?
**A.** Its value is 0 (0 is 0 to 20% damage).

**Q.** And the “damage to test plants, Mz” value [18]?
**A.** The value was 2.

**Q.** And the “damage to test plants, Rc” value [19]?
**A.** The value was 0 (0 is 0 to 20% damage).

**Q.** What about the “damage to test plants, Ww” value [20] of the same molecule?
**A.** Its value is 0 (0 is 0 to 20% damage).

**Q.** And the “damage to test plants, Ct” value [21]?
**A.** Its value is 0 (0 is 0 to 20% damage).

**Q.** And the “damage to test plants, Ip” value [22]?
**A.** The value was 0 (0 is 0 to 20% damage).

**Q.** And the “damage to test plants, Rp” value [23]?
**A.** Its value is 0 (0 is 0 to 20% damage).

**Q.** And the “damage to test plants, Sn” value [24]?
**A.** The value was 0 (0 is 0 to 20% damage).

**Q.** And the “damage to test plants, Sy” value [25]?
**A.** Its value is 0 (0 is 0 to 20% damage).

**Q.** And the “damage to test plants, Sb” value [26]?
**A.** The value was 1.

**Q.** What does the source list for `COC(=O)C(C)Oc1ccc(Nc2ccc(C(F)(F)F)cc2[N+](=O)[O-])cc1Cl` (stereo not shown) [Compound 116]?
**A.** herbicidal damage, Mz [8]: 3; herbicidal damage, Rc [9]: 4; herbicidal damage, Am [10]: 0 (0 is 0 to 20% damage); herbicidal damage, Ca [27]: 0 (0 is 0 to 20% damage); herbicidal damage, Ct [11]: 0 (0 is 0 to 20% damage); herbicidal damage, Ip [12]: 0 (0 is 0 to 20% damage); herbicidal damage, Pi [28]: 0 (0 is 0 to 20% damage); herbicidal damage, Rp [13]: 0 (0 is 0 to 20% damage); herbicidal damage, Sn [14]: 0 (0 is 0 to 20% damage); herbicidal damage, Sy [15]: 0 (0 is 0 to 20% damage); herbicidal damage, Sb [16]: 0 (0 is 0 to 20% damage); herbicidal damage, Ww [17]: 4; damage to test plants, Mz [18]: 4; damage to test plants, Rc [19]: 4; damage to test plants, Ww [20]: 4; damage to test plants, Am [29]: 0 (0 is 0 to 20% damage); damage to test plants, Ca [30]: 0 (0 is 0 to 20% damage); damage to test plants, Ct [21]: 0 (0 is 0 to 20% damage); damage to test plants, Ip [22]: 0 (0 is 0 to 20% damage); damage to test plants, Pi [31]: 0 (0 is 0 to 20% damage); damage to test plants, Rp [23]: 0 (0 is 0 to 20% damage); damage to test plants, Sy [25]: 0 (0 is 0 to 20% damage); damage to test plants, Sb [26]: 3
